Measured values published in US20110152166A1, “METHOD OF MODULATION OF PROTEIN PHOSPHORYLATION-DEPENDENT CONFORMATIONAL TRANSITIONS WITH LOW MOLECULAR WEIGHT COMPOUNDS” (priority 2006, published 2011).
Ends that are not written are not given here.

Columns and labels:
Format in all cases: biochemical
PDK1 50-360 [CT-PIF] = molecular target: T1, PDK1 50-360 [CT-PIF] (Homo sapiens, UniProt O15530); assay: PDK1 activity assay with T308tide; conditions: for AC50: PDK1 50-360 [CT-PIF]; for effect on specific activity of chimera (in words): PDK1 50-360[CT-PIF] chimera
T1 construct: comprising residues 50-360 joined to the last 48 aminoacids from PRK2; His-tag (pFastbac-HT) (N); made in house; host or cells: insect cells (pFastbac-HT baculovirus system); the other entry of the earlier key: PKN2 (Q16513, Serine/threonine-protein kinase N2)
T1 sequence (O15530 with tags, fused parts or gaps): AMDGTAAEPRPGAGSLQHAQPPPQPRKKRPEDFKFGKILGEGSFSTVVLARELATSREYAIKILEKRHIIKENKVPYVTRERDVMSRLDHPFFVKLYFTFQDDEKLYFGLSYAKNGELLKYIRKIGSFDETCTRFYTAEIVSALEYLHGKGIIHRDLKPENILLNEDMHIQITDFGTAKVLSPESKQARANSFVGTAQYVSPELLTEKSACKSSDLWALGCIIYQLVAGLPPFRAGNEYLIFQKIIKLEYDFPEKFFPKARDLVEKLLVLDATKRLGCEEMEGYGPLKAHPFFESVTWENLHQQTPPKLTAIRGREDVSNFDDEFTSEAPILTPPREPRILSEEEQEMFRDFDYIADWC
Excerpt: We generated a PDK1 chimera consisting of the catalytic domain of PDK1 comprising residues 50-360 joined to the last 48 aminoacids from PRK2, which include the sequence of PIFtide (PDK1 50-360[CT-PIF]). PIFtide binds with high affinity to PDK1. Therefore, we expected that the HM/PIF-pocket in this protein would be strongly bound to the C-terminus of PRK2. In this scenario, the specific activity of the PDK1 50-360[CT-PIF] chimera would not be affected by compounds which otherwise would bind to the PDK1 50-360 HM/PIF-pocket. The PDK1 50-360[CT-PIF] chimera had 1.5-fold higher specific activity than the PDK1 catalytic domain alone. Furthermore, the activity of PDK1 50-360[CT-PIF] chimera was not affected by PIFtide at concentrations that activated the PDK1 50-360 protein (FIG. 2G). Finally, PDK1 50-360[CT-PIF] specific activity was not affected by compound 1, further supporting the notion that PIFtide and compound 1 targeted an overlapping site in the catalytic domain of PDK1.
For the spectrofluorometer assay, the PDK1 protein used was the catalytic domain of PDK1 (50-359) produced in SF9 insect cells using baculovirus expression technology (Invitrogen). PDK1 was cloned in pFastbac-HT plasmid (NcoI-KpnI sites) taking advantage of an endogenous NcoI site in the PDK1 DNA sequence. The codon corresponding to aminoacid 360 was replaced by a stop codon. […]
(§1) Protein kinase activity tests were performed essentially as previously described (Balendran et al., 2000; Biondi et al., 2000; Biondi et al., 2001). Substrates used were either MBP (for PKCζ or polypeptides (Crosstide for PKB, S6K, SGK and PRK2; T308tide for PDK1, and Kemptide for PKA). PKA (Sigma) was measured in the presence of 100 μM cAMP. Alternatively, assays were performed in a 96 well format, aliquots spotted on p81 phosphocellulose papers (Whatmann), washed in 0.01% phosphoric acid, dried, and then exposed and analysed using Phospholmager technology (Storm, Molecular Dynamics). Activity measurements were performed in duplicates with less than 10% difference between duplicate pairs. Experiments were repeated at least twice, although most of the experiments were repeated multiple times, with similar results.
PDK1 activity assay was performed in a 20 μl mix containing 50 mM Tris-HCl pH 7.5, 0.05 mg/ml BSA, 0.1% β-mercaptoethanol, 10 mM MgCl2, 100 μM [γ^32P]ATP (5-50 cpm/pmol), 0.003% Brij, 150 ng PDK1, and T308tide (from 0.05 to 1 mM). PDK1 specific activity was approximately 5 U/mg (when measured at 1 mM T308tide). […]
PDK1 activity was measured at room temperature using a polypeptide substrate derived from the activation loop phosphorylation site of PKB, T308tide (0.1 mM). […]

ΔN-SGK[Ser422Asp] = molecular target: T2, ΔN-SGK[Ser422Asp] (Homo sapiens, UniProt O00141, S422D); assay: AGC kinase panel activity assay (Crosstide); conditions: for SGK1 (%) activity: 1% DMSO = 100%
T2 construct: made in house; host or cells: HEK293
T2 sequence (O00141 61-431 S422D limits assumed): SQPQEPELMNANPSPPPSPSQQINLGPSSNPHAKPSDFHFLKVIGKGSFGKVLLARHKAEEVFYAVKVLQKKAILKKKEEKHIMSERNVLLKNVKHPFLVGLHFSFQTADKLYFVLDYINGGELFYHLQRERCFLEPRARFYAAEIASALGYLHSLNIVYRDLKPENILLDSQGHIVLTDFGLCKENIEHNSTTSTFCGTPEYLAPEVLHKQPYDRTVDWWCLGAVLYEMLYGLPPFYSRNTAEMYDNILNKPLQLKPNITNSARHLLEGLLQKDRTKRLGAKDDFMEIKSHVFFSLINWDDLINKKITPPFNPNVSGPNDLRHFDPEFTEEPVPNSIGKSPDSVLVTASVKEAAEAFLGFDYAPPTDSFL
Description: as §1
(§2) Activity assays for each kinase were performed as described in Materials and Methods in the presence of 1% DMSO (100%). Except PKA, all protein kinases were produced as a GST-fusion. S6K1, PKBα, SGK mutants used were S6K1-T2-[Thr412Glu], PKBa[Ser473Asp] and ΔN-SGK[Ser422Asp].

S6K1-T2-[Thr412Glu] = molecular target: T3, S6K1-T2-[Thr412Glu] (Homo sapiens, UniProt P23443, T412E); assay: AGC kinase panel activity assay (Crosstide); conditions: for S6K1 (%) activity: 1% DMSO = 100%
T3 construct: made in house; host or cells: HEK293
Description: as §1, §2

PKBa[Ser473Asp] = molecular target: T4, PKBa[Ser473Asp] (Homo sapiens, UniProt P31749, S473D); assay: AGC kinase panel activity assay (Crosstide)
T4 construct: made in house; host or cells: HEK293
Description: as §1, §2

T3 sequence (P23443 1-421 T412E limits assumed): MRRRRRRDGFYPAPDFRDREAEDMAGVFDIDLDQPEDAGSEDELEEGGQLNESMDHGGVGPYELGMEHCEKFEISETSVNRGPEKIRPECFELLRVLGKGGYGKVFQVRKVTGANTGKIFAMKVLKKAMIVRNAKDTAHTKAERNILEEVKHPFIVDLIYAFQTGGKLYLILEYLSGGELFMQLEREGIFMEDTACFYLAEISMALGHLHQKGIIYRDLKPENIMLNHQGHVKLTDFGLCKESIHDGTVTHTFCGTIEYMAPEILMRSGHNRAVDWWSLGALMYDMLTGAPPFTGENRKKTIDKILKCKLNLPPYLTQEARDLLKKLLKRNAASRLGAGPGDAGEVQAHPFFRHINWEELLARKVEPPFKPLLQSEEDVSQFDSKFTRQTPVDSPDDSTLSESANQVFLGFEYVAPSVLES
T4 sequence (P31749 whole entry S473D): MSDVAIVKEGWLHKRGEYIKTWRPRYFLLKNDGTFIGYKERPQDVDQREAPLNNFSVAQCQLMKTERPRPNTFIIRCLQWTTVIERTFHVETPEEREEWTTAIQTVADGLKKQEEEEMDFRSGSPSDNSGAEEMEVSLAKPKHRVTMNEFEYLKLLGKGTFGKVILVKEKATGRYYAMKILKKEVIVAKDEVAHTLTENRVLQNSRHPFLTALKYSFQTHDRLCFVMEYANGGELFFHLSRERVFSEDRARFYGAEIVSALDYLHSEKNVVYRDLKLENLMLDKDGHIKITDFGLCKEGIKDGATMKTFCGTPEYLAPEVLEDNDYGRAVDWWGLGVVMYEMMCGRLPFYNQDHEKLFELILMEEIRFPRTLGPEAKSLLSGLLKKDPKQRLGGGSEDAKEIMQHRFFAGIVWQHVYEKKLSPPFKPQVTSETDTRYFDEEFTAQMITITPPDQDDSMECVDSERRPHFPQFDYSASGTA

AC50 (PDK1 50-360 [CT-PIF]) | effect on specific activity of chimera (in words) (PDK1 50-360 [CT-PIF]) | effect on SGK1 activity (in words) (ΔN-SGK[Ser422Asp]; 20 μM) | SGK1 (%) activity (ΔN-SGK[Ser422Asp]; 20 μM compound) [%] | SGK1 (%) activity (ΔN-SGK[Ser422Asp]; 200 μM compound) [%] | effect on S6K activity (in words) (S6K1-T2-[Thr412Glu]; 20 μM) | S6K1 (%) activity (S6K1-T2-[Thr412Glu]; 20 μM compound) [%] | S6K1 (%) activity (S6K1-T2-[Thr412Glu]; 200 μM compound) [%] | effect on PKBa/AKT1 activity (in words) (PKBa[Ser473Asp]; 20 μM) | activity at 20 µM (PKBa[Ser473Asp]; 20 μM compound, 1% DMSO = 100%, read-out: PKBα (%) activity) [%] | activity at 200 µM (PKBa[Ser473Asp]; 200 μM compound, 1% DMSO = 100%, read-out: PKBα (%) activity) [%] | PKBα (%) activity (PKBa[Ser473Asp]; 20 μM compound, 1% DMSO = 100%) [%] | PKBα (%) activity (PKBa[Ser473Asp]; 200 μM compound, 1% DMSO = 100%) [%] | Compound
No Effect | not affected | no significant effect | 97 | 61 | no significant effect | 109 | 110 | no significant effect | 89 | 85 |  |  | O=C(O)CSC(CC(=O)c1ccc(Cl)cc1)c1ccccc1 (stereo not shown) [Compound 1]
 |  |  | 89 | 92 |  | 109 | 120 |  |  |  | 92 | 106 | COC(=O)CSC(CC(=O)c1ccc(Cl)cc1)c1ccccc1 (stereo not shown) [Compound 2]
No Effect | not affected |  |  |  |  |  |  |  |  |  |  |  | REPRILSEEEQEMFRDFDYIADWC [PIFtide, reference compound]
